Reference: PubChem BioAssay (NCI)
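48-hour exposure; five concentrations; linearly interpolated endpoints. Definition used: TGI = concentration required for complete inhibition of growth.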 Where a SMILES comes first, the peptide text is derived from it. The star is where a group is joined. OSu = O=C1CCC(=O)N1O*

Experiments:
Test in all cases: DTP human tumour cell line panel, 48 h
[1] = system: NCI/ADR-RES ovarian
[2] = system: HS 578T breast
[3] = system: K-562 leukemia
[4] = system: RPMI-8226 leukemia
[5] = system: 786-0 renal
[6] = system: MCF7 breast
[7] = system: OVCAR-3 ovarian
[8] = system: MDA-MB-435
[9] = system: SF-268 CNS
[10] = system: A498 renal

Structure (SMILES) | TGI [1] | TGI [2] | TGI [3] | TGI [4] | TGI [5] | TGI [6] | TGI [7] | TGI [8] | TGI [9] | TGI [10]
O=C(Nc1ccc2cc3ccccc3cc2c1)c1cc2c(cc1Cl)Sc1nccn1S2(=O)=O | > 100 µM | > 100 µM | > 100 µM | > 100 µM | 30 µM | > 100 µM | > 100 µM | > 100 µM | 97.6 µM | 
O=C(O)c1ccc(Nc2nc3nn(Cc4ccccc4)cc3c(=O)s2)cc1 |  |  | > 100 µM | > 100 µM | > 100 µM |  | > 100 µM |  | > 100 µM | 
N#Cc1c(-c2ccccc2)cc(Nc2ccc(Cl)cc2)n2c1nc1ccccc12 | 15.7 µM | 20.2 µM | 8.21 µM | > 63.3 µM | > 39.7 µM | > 76.3 µM | 11 µM | > 100 µM | > 100 µM | > 100 µM
COc1ccc2c(c1OC)C(=O)O[C@@H]2[C@H]1c2c(cc3c(c2OC)OCO3)CCN1C | > 100 µM | 67.4 µM | > 100 µM | > 100 µM | > 100 µM | > 100 µM | 49.9 µM | 32.2 µM | > 100 µM | > 100 µM
COCOc1cc(OC)ccc1C/C(=N/O)C(=O)OC | > 100 µM | > 100 µM | > 100 µM |  | > 100 µM | > 100 µM | > 100 µM | > 100 µM | > 100 µM | 
CC(=O)NC1(C)C(C)C2CC1C(C)C2(C)C (configuration not stated) |  | > 100 µM | > 100 µM |  | > 100 µM | > 100 µM | > 100 µM | > 100 µM | > 100 µM | > 100 µM
O=[N+]([O-])C(C(Cl)=C(Cl)Cl)=C(n1cncn1)n1cncn1 | 67 µM | > 64.1 µM | > 100 µM | 51.5 µM | 45.4 µM | > 100 µM | 38.4 µM | > 71.8 µM | 35.3 µM | > 100 µM
CCCCCCCCCC(=O)NC(Cc1ccc(O)cc1)C(=O)NCCCNCCCCNCCCNC(=O)[C@@H](N)CCCN=C(N)N (some centres not stated) |  |  | > 100 µM | > 100 µM | > 100 µM |  | > 100 µM |  | > 100 µM | 
O=C1C(Cl)=C(NCCF)C(=O)c2ncccc21 |  | 4 µM | 2.82 µM | > 10 µM | 3.21 µM | 3.54 µM | 5.45 µM | 0.408 µM | 4.22 µM | > 10 µM
Cc1cn(C2OC(CO)C(O)C2F)c(=O)[nH]c1=O (configuration not stated) | > 100 µM | > 100 µM | > 100 µM |  | > 100 µM | > 100 µM | > 100 µM | > 100 µM | > 100 µM | > 100 µM
COc1ccc(CCN2C(=O)CC34C=CC(CC3C2=O)O4)cc1OC (configuration not stated) | > 100 µM |  | > 100 µM | > 100 µM | > 100 µM | > 100 µM | > 100 µM | > 100 µM |  | > 100 µM
Cc1nc(Nc2ccc(Cl)c(Cl)c2)sc1C(=O)/C=C/c1ccc2c(c1)OCO2 | > 100 µM |  | 89.9 µM | 45.9 µM | 38.4 µM | > 100 µM | 30 µM | 48.4 µM | 64 µM | 47.8 µM
O=c1[nH]c(=O)n([C@@H]2O[C@H](CO)[C@@H](O)[C@@H]2F)cc1I | > 100 µM | > 100 µM | > 100 µM |  | > 100 µM | > 100 µM | > 100 µM | > 100 µM | > 100 µM | > 100 µM
Cc1ccc(C2C(Cl)C(=O)N2NC(=O)c2ccc(N)cc2)cc1 (configuration not stated) |  |  | 61.2 µM | 78.9 µM | 37.8 µM |  | 36.7 µM |  |  | 56.4 µM
O=C1/C(=C/c2ccccc2)CCCc2ccccc21 | 40.5 µM | 40.4 µM | 49.4 µM | > 100 µM | 31.3 µM | 41.6 µM | 35.2 µM | 38.9 µM | 32.6 µM | 
CC(=O)NC1=C(N)C(=O)c2ccccc2C1=O |  |  | > 100 µM | > 100 µM | > 100 µM |  | 61.9 µM |  | > 100 µM | > 100 µM
COC(=O)[C@H](Cc1c[nH]c2ccccc12)NC(=O)c1ccccc1I | > 100 µM | 29.8 µM | > 100 µM |  | 34.6 µM | > 100 µM | 33.1 µM | 84.5 µM | 47 µM | 37.4 µM
CC(=O)n1nc(-c2ccc3ccccc3c2)nc1C | > 100 µM | > 100 µM | > 100 µM |  | > 100 µM | > 100 µM | > 100 µM | > 100 µM | > 100 µM | 
Cc1ccc(S(=O)(=O)NC(=O)NC(CCC(N)=O)C(=O)O)cc1 (configuration not stated) | > 100 µM | > 100 µM | > 100 µM | > 100 µM | > 100 µM | > 100 µM |  |  | > 100 µM | 
COC(=O)C1(O)C(c2ccccc2)NC2(C)CCCC21 (configuration not stated) | > 100 µM | > 100 µM |  |  | > 100 µM | > 100 µM |  | > 100 µM | > 100 µM | > 100 µM
OC12CCC3(O)c4ccccc4C3C1c1ccccc12 (configuration not stated) |  |  | > 100 µM | > 100 µM | > 100 µM |  |  |  | > 100 µM | 
CNC(=S)/C(C#N)=C(\N)N1CCCC1 | > 100 µM | > 100 µM | > 100 µM | > 100 µM | > 100 µM |  | > 100 µM | > 100 µM | > 100 µM | > 100 µM
NCCCCC(NC(=O)C(N)Cc1ccc(O)cc1)C(=O)NC(Cc1ccc(O)cc1)C(=O)NC(CCCCN)C(=O)ON1C(=O)CCC1=O (configuration not stated) (H-YKYK-OSu; configuration not given here) |  | > 100 µM | > 100 µM | > 100 µM | > 100 µM | > 100 µM |  |  |  | > 100 µM
CC(=O)O[C@H]1C(=O)[C@@]2(C)[C@H]([C@H](OC(=O)c3ccccc3)[C@]3(O)C[C@H](OC(=O)[C@H](O)[C@@H](NC(=O)c4ccc(N(C)C)cc4)c4ccccc4)C(C)=C1C3(C)C)[C@]1(OC(C)=O)CO[C@@H]1C[C@@H]2O | 16.7 µM | 0.00632 µM |  | 0.00795 µM | > 50 µM | > 50 µM | 0.0063 µM |  | > 50 µM | > 50 µM
